Test results published in article PMC6581936, “Impact of Intracellular Concentrations on Metabolic Drug-Drug Interaction Studies” (The AAPS Journal, 2019).
Several values for one entry are separate records, joined by “and”; a condition that tells them apart may be missing. Identical values can stand only once. Like-named read-outs stand apart in the source and are kept apart here.

What was measured:
[1] = Fraction unbound in the cell (fu,cell), homogenization method/equilibrium dialysis; format: in vitro ADME, human; settings: HH homogenate; for fraction unbound at 4 h, 0.5 μM / fraction unbound at 0.5 μM: human, human hepatocyte cell homogenate
[2] = Steady-state cellular uptake (Kp) in suspended HH; format: in vitro ADME; settings: human, suspended human hepatocytes; for Kp at 5 min, 0.5 μM: RO compounds, parameters matched to the IC50 assay
Protocol: The Kp in suspended HH was measured similarly to previous reports with some modifications ([7],[18]). Briefly, cells were rinsed twice with […] 10 mM HEPES. One hundred microliters of cell suspension (5 × 10^6 cells/mL) was added to a conical 96-well plate, and 100 μL of 1 μM drug solutions in Hank’s buffered salt solution (HBSS) buffered with 10 mM HEPES was added (resulting in a 0.5 μM final concentration). All incubations were performed in triplicates on up to three independent occasions. Full-time curves were established at 1, 3, 7.5, 15, 30, and 45 min to determine Kp at equilibrium. For single time point measurements, the incubation time was matched to the CYP inhibition assays. A sample of the medium was removed after centrifugation in a pre-cooled centrifuge at 4°C (100×g, 5 min), and ten-fold diluted with a mixture of acetonitrile and water (60:40) containing the internal standard for determination of Cmedium. The remaining supernatant was removed by aspiration and cells were washed twice with ice-cold buffer. The intracellular compound was extracted using the acetonitrile to water to internal standard mixture for determination of the amount of drug in the cells (Acell). Protein content (Pcell) was quantified using the BCA assay in representative wells to establish the cellular volume (Vcell), assuming 6.5 μL/mg protein ([23]). Finally, Kp was calculated using Eq. (2)2 Kp=Acell/Vcell∙Pcell/Cmedium

[3] = Intracellular unbound drug accumulation ratio (Kpuu) in suspended HH; format: in vitro ADME, human; settings: for Kpuu / Kp uu: suspended HH; for Kpuu: Kp x fu,cell, reference compounds; for Kp uu: human, suspended human hepatocytes
Protocol: Kpuu was determined as previously described ([7],[18]) using Eq. (1):
1 Kpuu=Kp∙fu,cell/fu,medium where Kp is the steady-state cellular uptake, and fu,cell the fraction of unbound compound in the cell, determined as described below. The fraction unbound of the compound in the medium (fu,medium) was equal to 1 as no serum proteins or other drug binding components were added to the incubation media.

[4] = Kpuu in rat hepatocytes derived from literature Kp; format: in vitro ADME; settings: literature rat Kp x experimental (human) fu,cell
[5] = Kp and mass balance in HH in presence and absence of CYP inhibitor ABT; format: in vitro ADME, human; settings: for mass balance: hepatocyte experiments, without ABT
Protocol: S 4 Kp in presence of metabolic inhibitor ABT
A batch of HH derived from a single donor and a pooled batch were each used to measure Kp at 45
minutes in presence and absence of the CYP inhibitor ABT.[1]
Time curves over 45 minutes were established in plated HH. […]

[6] = Intracellular unbound drug accumulation ratio (Kpuu) in suspended HH; format: in vitro ADME; settings: human, human hepatocytes, pH partitioning theory, read-out: calculated cytosolic Kpuu (or Fcyto)
[7] = test system: CYP3A4; set-up: method as in earlier work; settings: RH; MDZ/1'-OH; ref [2] Brown et al., Drug Metab Dispos 2010; read-out: Ki (Ki,app); cited from earlier work
[8] = set-up: method as in Brown et al., Drug Metab Dispos 2010; settings: rat liver microsomes; ref Brown et al., Drug Metab Dispos 2010; cited from earlier work
[9] = set-up: method as in Brown et al, DMD, 2010; settings: rat; calculated from Kilford et al. (2008); ref Brown et al, DMD, 2010; cited from earlier work
[10] = set-up: method as in Brown et al, DMD, 2010; settings: rat hepatocytes; ref Brown et al, DMD, 2010; cited from earlier work
[11] = test system: CYP3A4; settings: read-out: Ki (Ki,app); RLM; MDZ/1'-OH; ref [2] Brown et al., Drug Metab Dispos 2010; cited from earlier work
[12] = Fraction unbound to microsomes (fu,mic), equilibrium dialysis, HLM 0.2 mg/mL; settings: both, human
[13] = biological target: T1, CYP1A2 (Homo sapiens, UniProt P05177); assay: CYP1A2 inhibition in HLM; format: biochemical; settings: average values from table S1; read-out: IC50,app HLM
T1 sequence (P05177 whole entry): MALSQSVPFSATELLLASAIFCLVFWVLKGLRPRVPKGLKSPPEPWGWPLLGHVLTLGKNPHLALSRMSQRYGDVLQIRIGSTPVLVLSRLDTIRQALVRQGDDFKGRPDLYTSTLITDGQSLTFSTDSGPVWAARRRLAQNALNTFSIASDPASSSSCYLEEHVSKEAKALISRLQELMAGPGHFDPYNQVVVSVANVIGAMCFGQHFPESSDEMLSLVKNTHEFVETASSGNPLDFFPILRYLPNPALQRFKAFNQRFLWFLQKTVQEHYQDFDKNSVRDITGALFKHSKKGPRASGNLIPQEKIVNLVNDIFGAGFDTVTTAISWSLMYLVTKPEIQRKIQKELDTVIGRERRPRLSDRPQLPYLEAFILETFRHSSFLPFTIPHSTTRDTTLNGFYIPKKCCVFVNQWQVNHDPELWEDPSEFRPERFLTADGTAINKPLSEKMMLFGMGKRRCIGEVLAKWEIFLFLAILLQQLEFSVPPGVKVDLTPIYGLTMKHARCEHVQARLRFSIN

[14] = biological target: T1, CYP1A2; assay: CYP1A2 inhibition in suspended HH; format: cell-based; settings: TCR/1'-OH, source [3] In house
Protocol: (§1) For HH, 50 μL of a suspension of cryopreserved HH (3 × 10^6 cells/mL) were added to a 96-well round bottom plate and pre-incubated for 20 min in Williams E medium (without FBS). Fifty microliters of a × 3 concentrated test compound-solution and 50 μL of × 3 concentrated substrate (diclofenac for CYP2C9, midazolam for CYP3A4 and tacrine for CYP1A2) were added and the plate was incubated on a shaker at 37°C, 5% CO2, and 900 rpm. Incubations were stopped after 5 min by transferring 100 μL of the suspension to a fresh plate and adding 100 μL of acetonitrile containing the internal standard and then analyzed as above.

[15] = test system: CYP1A2; set-up: method as in earlier work; settings: RLM; TPH/1,3-DMU; ref [2] Brown et al., Drug Metab Dispos 2010; read-out: Ki (Ki,app); cited from earlier work
[16] = test system: CYP1A2; set-up: method as in earlier work; settings: RH; TPH/1,3-DMU; ref [2] Brown et al., Drug Metab Dispos 2010; read-out: Ki (Ki,app); cited from earlier work
[17] = pKa of RO compounds; format: physicochemical; settings: method not stated
Source text: Table II Properties of the RO Discovery Compound Series and Results in HLM and Suspended HH | column: pKa

[18] = Papp of RO compounds; format: in vitro ADME; settings: not told, method not stated
Source text: Table II Properties of the RO Discovery Compound Series and Results in HLM and Suspended HH | column: Papp (× 10^−6 cm/s)

[19] = test system: CYP2C9; assay: CYP2C9 inhibition assay in HLM and HH (diclofenac); format: biochemical, human; settings: diclofenac as substrate
Protocol: After the addition of 20 μL of 10 mM NADPH, the plate was incubated for 5 min. The reaction was stopped by adding 200 μL of acetonitrile containing an internal standard. After centrifugation of 10 min at 6200×g, the concentration of the substrate in the samples was determined by LC-MS (Sciex API4000, see S6 for LC-MS parameters).
as §1

[20] = cited from earlier work
[21] = azole series (itraconazole 24 h dialysis)

fraction unbound at 4 h, 0.5 μM ([12]; human liver microsomes) | fraction unbound at 4 h, 0.5 μM ([1]; RO compounds) | Kp at 5 min, 0.5 μM [2] | Kp uu ([3]; RO compounds) | pKa [17] | Papp [18] [nm/s] | SMILES | other results
0.53 ± 0.13 |  |  |  |  |  | CCn1cc(C(=O)O)c(=O)c2cc(F)c(N3CCNCC3)nc21 [Enoxacin] | fraction unbound at 4 h, 0.5 μM ([1]; 0.5 μM, reference compounds): 1; Kp at 0.5 μM ([2]; 0.5 μM, reference compounds): 7.4 ± 1.1; IC50 [13]: 2140 ± 370 µM; IC50 [14]: 422 ± 93 µM; Kp uu [4]: 20; mass balance ([5]; suspended HH): ~ 100%; Ki [15]: 2800 ± 1200 µM; Ki [16]: 120 ± 65 µM; fu,mic [8]: 0.99; fu,cell [9]: 0.99; Kp [10]: 20
 |  |  |  |  |  | CCC(C)n1ncn(-c2ccc(N3CCN(c4ccc(OCC5COC(Cn6cncn6)(c6ccc(Cl)cc6Cl)O5)cc4)CC3)cc2)c1=O (stereo not shown) [Itraconazole, reference compound] | fu,cell [1, 21]: 0.003 ± 0.002; Kp at 0.5 μM ([2]; azole series): 2720 ± 1570; Kp uu ([3]; azole series): 7.5 ± 6.3; fraction unbound at 0.5 μM ([12]; human liver microsomes): 0.21 ± 0.13
 |  |  |  |  |  | CC(=O)N1CCN(c2ccc(OCC3COC(Cn4ccnc4)(c4ccc(Cl)cc4Cl)O3)cc2)CC1 (stereo not shown) [Ketoconazole, reference compound] | fraction unbound at 0.5 μM [1, 21]: 0.004 ± 0.001; fraction unbound at 0.5 μM ([12]; microsomes): 0.32 ± 0.12
0.04 ± 0.02 |  |  |  |  |  | Cc1c(O)cccc1C(=O)N[C@@H](CSc1ccccc1)[C@H](O)CN1C[C@H]2CCCC[C@H]2C[C@H]1C(=O)NC(C)(C)C [Nelfinavir] | fu,cell ([1]; 0.5 μM, reference compounds): 0.00025 ± 0.00005; fraction unbound at 4 h, 0.5 μM ([1]; 0.5 μM, reference compounds): 0.0002; Kpuu with wash buffers at 4 and 37°C, with and without albumin ([3]; 45 minutes, except 4°C without albumin vs 37°C containing albumin): did not differ; Kp in presence or absence of ABT ([5]; HH, 45 minutes): unaffected; change of mass balance upon addition of ABT ([5]; suspended HH, 45 minutes): approximately doubled; Ki [7]: […]; fu,mic [8]: 0.022; fu,cell [9]: 0.035; Kp [10]: 3352; Ki [11]: […]
 |  |  |  |  |  | CC[C@@H]([C@H](C)O)n1ncn(-c2ccc(N3CCN(c4ccc(OC[C@@H]5CO[C@@](Cn6cncn6)(c6ccc(F)cc6F)C5)cc4)CC3)cc2)c1=O [Posaconazole, reference compound] | fraction unbound at 0.5 μM [1, 21]: 0.005 ± 0.003; Kp at 0.5 μM ([2]; azole series): 6930 ± 1240; Kp uu ([3]; azole series): 37.6 ± 12.8; fraction unbound at 0.5 μM ([12]; human liver microsomes): 0.21 ± 0.11
0.42 ± 0.06 | 0.0149 ± 0.0003 | 24 ± 2.2 | 0.357 ± 0.003 | 5.41 | 100 | Cc1cccc(S(=O)(=O)NC(=O)Nc2cc(Br)cc(N)n2)c1 [RO01] | difference of IC50,app between HH and HLM [19]: identical
0.36 ± 0.09 | 0.0013 ± 7e-05 | 47.3 ± 1.1 | 0.0613 ± 0.0002 | 3.14 | 20 | Cc1cccc2cc(S(=O)(=O)NC(=O)Nc3ncc(Br)s3)sc12 [RO02] | 
0.41 ± 0.03 | 0.017 ± 0.001 | 17.9 ± 8.9 | 0.3 ± 0.08 | 2.91 | 90 | COCc1oc(S(=O)(=O)NC(=O)Nc2ncc(Br)s2)cc1C [RO03] | difference of IC50,app between HH and HLM [19]: identical
0.45 ± 0.11 | 0.02 ± 0.01 | 27.6 ± 26.1 | 0.46 ± 0.65 | 2.8 | 130 | COCc1oc(S(=O)(=O)NC(=O)Nc2nc(C)c(Br)s2)cc1C [RO04] | difference of IC50,app between HH and HLM [19]: identical
0.23 ± 0.02 | 0.0021 ± 0.0003 | 18.5 ± 4.4 | 0.039 ± 0.003 | 2.76 | 20 | O=C(Nc1ncc(Br)s1)NS(=O)(=O)c1cc2cccc(Cl)c2s1 [RO05] | 
0.36 ± 0.11 | 0.0039 ± 0.0003 | 61.6 ± 38.6 | 0.24 ± 0.1 | 2.8 | 30 | Cn1c(S(=O)(=O)NC(=O)Nc2ncc(Br)s2)cc2ccccc21 [RO06] | 
0.84 ± 0.06 | 0.00392 ± 3e-05 | 41.9 ± 4.8 | 0.16 ± 0.01 | 3.17 | 40 | COc1cc(C)c(-c2sc(S(=O)(=O)NC(=O)Nc3ncc(Br)s3)cc2C)cn1 [RO07] | 
0.41 ± 0.09 | 0.009 ± 0.004 | 22.2 ± 4.3 | 0.21 ± 0.05 | 2.66 | 220 | Cc1cccc(S(=O)(=O)NC(=O)Nc2snc(C)c2Br)c1 [RO08] | 
0.97 ± 0.41 | 0.0075 ± 0.0006 | 11.7 ± 2 | 0.088 ± 0.003 | 2.49 | 20 | COCCc1sc(S(=O)(=O)NC(=O)Nc2snc(C)c2Br)cc1C [RO09] | difference of IC50,app between HH and HLM [19]: 12 fold
 |  |  |  |  |  | CO[C@H]1/C=C/O[C@@]2(C)Oc3c(C)c(O)c4c(O)c(c(/C=N/N5CCN(C)CC5)c(O)c4c3C2=O)NC(=O)/C(C)=C\C=C\[C@H](C)[C@H](O)[C@@H](C)[C@@H](O)[C@@H](C)[C@H](OC(C)=O)[C@@H]1C [rifampicin] | empirical hepatic uptake scalar [20]: 16.9

SMILES | fraction unbound at 4 h, 0.5 μM ([12]; human liver microsomes) | fraction unbound at 4 h, 0.5 μM ([1]; RO compounds) | Kp at 5 min, 0.5 μM [2] | Kp uu ([3]; RO compounds) | pKa [17] | Papp [18] [nm/s] | other results
CC[C@H]1OC(=O)[C@H](C)[C@@H](O[C@H]2C[C@@](C)(OC)[C@@H](O)[C@H](C)O2)[C@H](C)[C@@H](O[C@@H]2O[C@H](C)C[C@H](N(C)C)[C@H]2O)[C@](C)(OC)C[C@@H](C)C(=O)[C@H](C)[C@@H](O)[C@]1(C)O [Clarithromycin] | […] |  |  |  |  |  | fraction unbound at 4 h, 0.5 μM ([1]; 0.5 μM, reference compounds): […]; Kp at 0.5 μM ([2]; 0.5 μM, reference compounds): 25.9 ± 2.1; Kpuu [3]: […]; Kpuu ([3]; listed as clarithromycin): […]; Kp uu [4]: 2.27 ± 0.28; mass balance ([5]; suspended HH): […]; Kp uu [6]: 1.3; Ki [7]: […]; fu,mic [8]: 0.81; fu,cell [9]: 0.86; Kp [10]: 22; Ki [11]: […]
